Results on 29 molecules are retold here after ChEMBL document CHEMBL1137178, “Design, synthesis and antimalarial activity of a glyoxylylhydrazone library” (Bioorg Med Chem Lett, 2004).

The target of assay [1] is T1, Histidine-rich protein PFHRP-II (Plasmodium falciparum) (UniProt P05227).
T1 sequence (whole entry): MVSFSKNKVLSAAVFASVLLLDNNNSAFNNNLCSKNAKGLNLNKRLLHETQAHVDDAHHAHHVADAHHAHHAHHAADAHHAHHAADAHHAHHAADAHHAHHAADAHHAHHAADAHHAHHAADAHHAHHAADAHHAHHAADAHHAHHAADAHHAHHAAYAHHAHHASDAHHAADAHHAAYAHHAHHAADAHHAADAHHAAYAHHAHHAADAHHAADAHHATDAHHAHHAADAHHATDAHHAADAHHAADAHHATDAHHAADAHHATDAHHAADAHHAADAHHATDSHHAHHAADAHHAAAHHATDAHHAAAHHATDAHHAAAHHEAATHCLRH
The assay is described as follows: In vitro inhibition of beta-hematin formation in Plasmodium falciparum at 100 uM. It is filed as functional.

In assay [2] the test system is Plasmodium falciparum. The assay is described as follows: Inhibitory concentration against chloroquine-resistant Plasmodium falciparum FcB1. It is filed as functional, organism-based.
For assay [3], the system named is MRC5. The assay is described as follows: Selectivity index measured as CC50/IC50. Type of assay: functional, Homo sapiens.
Assay [4] concerns Plasmodium falciparum. The experiment in a line: Growth inhibitory concentration against chloroquine-resistant Plasmodium falciparum. It is filed as functional, organism-based.
The subject of assay [5] is MRC5. The experiment in a line: Cytotoxic effect on human diploid embryonic lung cell line (MRC-5) using the colorimetric MTT assay. Type of assay: functional. A general note: Tetrazolium assays rely on reduction of a dye to a coloured formazan, in cell work by metabolically active cells.
In assay [6] the test system is Plasmodium falciparum. The assay is described as follows: Growth inhibition against Plasmodium falciparum FcB1 at 200 nM. Type of assay: functional.

As a reminder, the inhibition is the share of the control response that was lost under treatment. A higher inhibition goes with strong suppression. Broadly, the IC50 is the concentration at which inhibition is half-maximal. In assay [1], `Cc1ccc(N/N=C/C(=O)NCCCCCCCNc2ccnc3cc(Cl)ccc23)c(C)c1` showed an inhibition of 8%. The same molecule gave an IC50 in the assay with Plasmodium falciparum [2] of 0.086 µM.

A word on the CC50: it is the concentration that lowers cell viability or growth by half. Turning to `COc1ccc2nc(N/N=C/C(=O)NCCCCCCCNc3ccnc4cc(Cl)ccc34)nnc2c1`, in the assay with MRC5 [3], the SI is listed as 34. Further, the figures for the 50% inhibitory concentration (IC50) with Plasmodium falciparum [4] and with Plasmodium falciparum [2] were 0.0737 µM and 0.045 µM, respectively. Further, the inhibition in assay [1] came out at 28%. The molecule further returned a half-maximal cytotoxic concentration (CC50) in the assay on MRC5 [5] of 2.5 µM.

With `CC(C)(C)c1ccc(N/N=C/C(=O)NCCCCCCCNc2ccnc3cc(Cl)ccc23)cc1`, the inhibition in assay [1] is 1%. The inhibition at 0.2 µM in the assay on Plasmodium falciparum [6] was 32%.

`CC(C)(C)N/N=C/C(=O)NCCCCCCCNc1ccnc2cc(Cl)ccc12` came in with an inhibition in assay [1] of 0%. Moreover, half-maximal inhibition in the assay with Plasmodium falciparum [2] (IC50) required 0.06 µM.

As for `O=C(/C=N/Nc1c(Cl)cc(C(F)(F)F)cc1Cl)NCCCCCCCNc1ccnc2cc(Cl)ccc12`, in the assay on MRC5 [3], the SI was 104. For the same molecule, the IC50 was determined as 0.0887 µM in the assay on Plasmodium falciparum [4] and 0.016 µM in the assay on Plasmodium falciparum [2]. For the same molecule, the inhibition in assay [1] amounted to 7%. Also, the midpoint of cytotoxicity in the assay on MRC5 [5], the CC50, lay at 9.2 µM.

As for `CC(C)(C)O/N=C/C(=O)NCCCCCCCNc1ccnc2cc(Cl)ccc12`, in assay [1], the inhibition turned out to be 0%. This molecule gave an inhibition at 0.2 µM in the assay on Plasmodium falciparum [6] of 14%.

`O=C(/C=N/OCc1c(F)c(F)c(F)c(F)c1F)NCCCCCCCNc1ccnc2cc(Cl)ccc12` gave an inhibition in assay [1] of 0%. Besides, the inhibition at 0.2 µM with Plasmodium falciparum [6] is 33%.

`O=C(/C=N/Nc1ccc(F)cc1F)NCCCCCCCNc1ccnc2cc(Cl)ccc12`: the inhibition in assay [1] came to 0%. The IC50 in the assay with Plasmodium falciparum [2] worked out at 0.105 µM.

For `CO/N=C/C(=O)NCCCCCCCNc1ccnc2cc(Cl)ccc12`, the inhibition in assay [1] was 4%. For the same molecule, the inhibition at 0.2 µM in the assay on Plasmodium falciparum [6] was determined as 11%.

Take `O=C(/C=N/NCc1ccccc1)NCCCCCCCNc1ccnc2cc(Cl)ccc12`: the SI with MRC5 [3] was 91. The IC50 with Plasmodium falciparum [4] amounted to 0.161 µM; in the assay on Plasmodium falciparum [2], 0.035 µM. For the same molecule, the inhibition in assay [1] was determined as 0%. The molecule further yielded a CC50 in the assay with MRC5 [5] of 14.6 µM.

Take `O=C(/C=N/Nc1ccc(Cl)cc1Cl)NCCCCCCCNc1ccnc2cc(Cl)ccc12`: in assay [1], the inhibition is 12%. This molecule also displayed an inhibition at 0.2 µM with Plasmodium falciparum [6] of 0%.

Consider `Cc1cc(N/N=C/C(=O)NCCCCCCCNc2ccnc3cc(Cl)ccc23)nc(C)n1`, for which the inhibition in assay [1] is 19%. Besides, 0.2 µM produced 0% inhibition with Plasmodium falciparum [6].

`CCOCC(=O)N/N=C/C(=O)NCCCCCCCNc1ccnc2cc(Cl)ccc12` came in with an inhibition in assay [1] of 12%. At 0.2 µM the inhibition in the assay on Plasmodium falciparum [6] was 59%.

With `O=C(/C=N/Nc1ccc(F)c(Cl)c1)NCCCCCCCNc1ccnc2cc(Cl)ccc12`, the inhibition in assay [1] worked out at 0%. In the assay with Plasmodium falciparum [2], half-maximal inhibition (IC50) was put at 0.2 µM.

As for `O=C(/C=N/Nc1ccnc2cc(Cl)ccc12)NCCCCCCCNc1ccnc2cc(Cl)ccc12`, in the assay on MRC5 [3], the SI is 73. Besides, the figures for the IC50 in the assay on Plasmodium falciparum [4] and with Plasmodium falciparum [2] were 0.0193 µM and 0.007 µM, respectively. This molecule displayed an inhibition in assay [1] of 0%. Moreover, in the assay on MRC5 [5], the CC50 came to 1.4 µM.

In turn, `O=C(/C=N/O)NCCCCCCCNc1ccnc2cc(Cl)ccc12` registered an inhibition in assay [1] of 6%. Moreover, in the assay on Plasmodium falciparum [6], the inhibition at 0.2 µM came out at 10%.

Molecule `O=C(/C=N/OCc1ccccc1)NCCCCCCCNc1ccnc2cc(Cl)ccc12` displayed an inhibition in assay [1] of 0%. The molecule also showed an inhibition at 0.2 µM in the assay on Plasmodium falciparum [6] of 29%.

For the molecule `O=C(/C=N/Nc1ccccc1)NCCCCCCCNc1ccnc2cc(Cl)ccc12`, the inhibition in assay [1] turned out to be 0%. Moreover, the inhibition at 0.2 µM in the assay on Plasmodium falciparum [6] came out at 0%.

In assay [1], `C=CCO/N=C/C(=O)NCCCCCCCNc1ccnc2cc(Cl)ccc12` showed an inhibition of 3%. This molecule displayed an IC50 in the assay on Plasmodium falciparum [2] of more than 0.5 µM.

For the molecule `CN(/N=C/C(=O)NCCCCCCCNc1ccnc2cc(Cl)ccc12)c1ncccc1[N+](=O)[O-]`, the inhibition in assay [1] was 18%. Moreover, in the assay with Plasmodium falciparum [6], the inhibition at 0.2 µM came out at 3%.

On to `COC(=O)c1sccc1N/N=C/C(=O)NCCCCCCCNc1ccnc2cc(Cl)ccc12`, for which the inhibition in assay [1] came out at 11%. This molecule had an inhibition at 0.2 µM in the assay on Plasmodium falciparum [6] of 13%.

In turn, `CCN(CC)CCCC(C)Nc1ccnc2cc(Cl)ccc12` (centres undefined) [CHLOROQUINE] returned an inhibition in assay [1] of 55%. This molecule also had a CC50 in the assay on MRC5 [5] of 50 µM.

`O=C(/C=N/Nc1ccc([N+](=O)[O-])cc1[N+](=O)[O-])NCCCCCCCNc1ccnc2cc(Cl)ccc12`: the SI with MRC5 [3] is reported as 235. Further, the IC50 in the assay on Plasmodium falciparum [4] is 0.0473 µM; with Plasmodium falciparum [2] it was 0.013 µM. Besides, the inhibition in assay [1] was 25%. This molecule showed a CC50 in the assay with MRC5 [5] of 11.1 µM.

Consider `O=C(/C=N/Nc1ccc(Cl)nn1)NCCCCCCCNc1ccnc2cc(Cl)ccc12`, for which the inhibition in assay [1] was 0%. Also, the half-inhibitory concentration (IC50) in the assay with Plasmodium falciparum [2] turned out to be 0.18 µM.

On to `O=C(/C=N/Nc1cnc2ccccc2n1)NCCCCCCCNc1ccnc2cc(Cl)ccc12`, for which the inhibition in assay [1] stood at 0%. Moreover, in the assay on Plasmodium falciparum [2], the midpoint of inhibition, the IC50, lay at 0.09 µM.

In assay [1], `O=C(/C=N/Nc1nc(-c2cccs2)ns1)NCCCCCCCNc1ccnc2cc(Cl)ccc12` displayed an inhibition of 19%. For the same molecule, the inhibition at 0.2 µM with Plasmodium falciparum [6] came to 8%.

Consider `CCO/N=C/C(=O)NCCCCCCCNc1ccnc2cc(Cl)ccc12`, for which the inhibition in assay [1] is 0%. This molecule showed an inhibition at 0.2 µM in the assay on Plasmodium falciparum [6] of 11%.

In the case of `O=C(/C=N/OCc1ccc([N+](=O)[O-])cc1)NCCCCCCCNc1ccnc2cc(Cl)ccc12`, the SI in the assay on MRC5 [3] is listed as 27. Moreover, the IC50 worked out at 0.0623 µM in the assay on Plasmodium falciparum [4] and 0.005 µM in the assay with Plasmodium falciparum [2]. The same molecule came in with an inhibition in assay [1] of 0%. Further, the CC50 with MRC5 [5] is 1.7 µM.

Turning to `Cc1cc(N/N=C/C(=O)NCCCCCCCNc2ccnc3cc(Cl)ccc23)nc2c1c(C)nn2C`, in the assay on MRC5 [3], the SI came to 28. The IC50 in the assay with Plasmodium falciparum [4] worked out at 0.0639 µM; with Plasmodium falciparum [2], 0.03 µM. Besides, the inhibition in assay [1] worked out at 0%. The CC50 in the assay with MRC5 [5] was 1.8 µM.
